One may read the IC50 as the midpoint of a concentration-inhibition curve.

The test system of assay [1] is PC-3 cells. Briefly: Cell Proliferation Assay (Cell Titer Glo), PC-3 cell line. It is filed as cell-based. Particulars: Homo sapiens, PC-3, Cell Proliferation Assay, PC3; read-out: CPEC50 PC3. The essentials:
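PC-3 cells, 1000 cells/well, left to adhere 3-5 h, then exposed for 3 days at 37° C to compounds as 1:3 serial dilutions from 500× DMSO stocks diluted in growth medium. Medium then replaced with fresh medium and viability read by Cell Titer Glo luminescence.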
(ATP-based viability assays read luminescence as a measure of living cells.)

Assay [2] deals with T1, PDK1 kinase (Homo sapiens, UniProt O15530).
T1 sequence (O15530 1-556): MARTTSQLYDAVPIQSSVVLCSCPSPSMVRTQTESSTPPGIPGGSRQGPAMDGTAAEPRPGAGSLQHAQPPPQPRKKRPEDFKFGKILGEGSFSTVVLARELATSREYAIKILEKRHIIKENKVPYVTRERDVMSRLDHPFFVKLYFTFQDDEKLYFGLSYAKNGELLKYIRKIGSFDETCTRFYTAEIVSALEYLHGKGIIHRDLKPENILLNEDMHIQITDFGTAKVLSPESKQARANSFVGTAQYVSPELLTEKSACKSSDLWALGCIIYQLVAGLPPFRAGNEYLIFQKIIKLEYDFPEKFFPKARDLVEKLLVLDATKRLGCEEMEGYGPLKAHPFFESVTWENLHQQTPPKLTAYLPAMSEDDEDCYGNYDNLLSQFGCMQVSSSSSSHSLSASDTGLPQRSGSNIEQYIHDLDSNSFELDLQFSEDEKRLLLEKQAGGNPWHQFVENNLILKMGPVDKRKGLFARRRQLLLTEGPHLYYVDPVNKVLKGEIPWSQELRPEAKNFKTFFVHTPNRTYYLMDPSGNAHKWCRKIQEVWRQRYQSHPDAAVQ
The experiment in a line: PDK1 Kinase Alpha Screen Assay. To be noted: PDK1 Kinase Alpha Screen Assay; read-out: PDK1 IC50. It is filed as biochemical. The essentials:
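Compound in DMSO added to PDK1-4 peptide; PDK1/ATP mix starts reaction (final 50 nM peptide, 10 uM ATP). Runs 3-18 hours, stopped with 90 mM EDTA buffer. Antibody/bead mix added, developed overnight at room temperature, then AlphaScreen signal read.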

On to `CN1CCN(c2ccc(Nc3ncc4cccc(OC5CCNCC5)c4n3)cc2)CC1` [Compound 548, N-(4-(4-methylpiperazin-1-yl)phenyl)-8-(piperidin-4-yloxy)quinazolin-2-amine], for which the EC50 in assay [1] is below 5 µM. The concentration for half-maximal inhibition (IC50) in assay [2] was below 5 µM.

`CNS(=O)(=O)c1ccc(Nc2ncc3ccc(O)c(C4CCN(C(C)C)CC4)c3n2)cc1` [Compound 549]: the EC50 in assay [1] was below 5 µM. Moreover, the half-inhibitory concentration (IC50) in assay [2] was below 5 µM.

Consider `c1cc(Nc2ncc3cccc(OC4CCNCC4)c3n2)cc(N2CCCC2)c1` [Compound 550, 8-(piperidin-4-yloxy)-N-(3-(pyrrolidin-1-yl)phenyl)quinazolin-2-amine], for which, in assay [1], the EC50 was in the range of 5 to 10 µM. The IC50 in assay [2] was below 5 µM.

`CC(C)N1CCC(Oc2cccc3cnc(Nc4cccc(N5CCCC5)c4)nc23)CC1` [Compound 551, 8-(1-isopropylpiperidin-4-yloxy)-N-(3-(pyrrolidin-1-yl)phenyl)quinazolin-2-amine]: the EC50 in assay [1] fell in the range of 5 to 10 µM. Besides, the IC50 in assay [2] was below 5 µM.

Consider `CC(C)N1CCC(Oc2cccc3cnc(N4CCN(c5ccc(N)cc5)CC4)nc23)CC1` [Compound 552, 4-(4-(8-(1-isopropylpiperidin-4-yloxy)quinazolin-2-yl)piperazin-1-yl)aniline], for which the EC50 in assay [1] was in the range of 5 to 10 µM. Also, the half-inhibitory concentration (IC50) in assay [2] is 10 to 25 µM.

Turning to `CC(C)N1CCC(Oc2cc(-c3nccs3)cc3cnc(Nc4ccc(N5CCOCC5)cc4)nc23)CC1` [Compound 553, 8-(1-isopropylpiperidin-4-yloxy)-N-(4-morpholinophenyl)-6-(thiazol-2-yl)quinazolin-2-amine], in assay [1], the EC50 is below 5 µM. Further, in assay [2], the IC50 was below 5 µM.

With `COc1cc(Nc2ncc3ccc(OC4CCN(C(C)C)CC4)cc3n2)cc(OC)c1` [Compound 565, N-(3,5-dimethoxyphenyl)-7-(1-isopropylpiperidin-4-yloxy)quinazolin-2-amine], the EC50 in assay [1] lay in the range of 5 to 10 µM. In assay [2], the IC50 lay in the range of 5 to 10 µM.

`COc1cc(Nc2ncc3ccc(OC4CCN(C)CC4)cc3n2)cc(OC)c1` [Compound 566, N-(3,5-dimethoxyphenyl)-7-(1-methylpiperidin-4-yloxy)quinazolin-2-amine]: the EC50 in assay [1] is below 5 µM. The concentration for half-maximal inhibition (IC50) in assay [2] was below 5 µM.

With `Fc1cccc(Nc2ncc3ccc(OC4CCNCC4)cc3n2)c1` [Compound 567, N-(3-fluorophenyl)-7-(piperidin-4-yloxy)quinazolin-2-amine], in assay [1], the EC50 was below 5 µM. In addition, the half-maximal inhibitory concentration (IC50) in assay [2] was below 5 µM.

With `Fc1cc(F)cc(Nc2ncc3ccc(OC4CCNCC4)cc3n2)c1` [Compound 568, N-(3,5-difluorophenyl)-7-(piperidin-4-yloxy)quinazolin-2-amine], the EC50 in assay [1] is below 5 µM. For the same compound, the IC50 in assay [2] was below 5 µM.

With `FC(F)(F)c1cccc(Nc2ncc3ccc(OC4CCNCC4)cc3n2)c1` [Compound 569, 7-(piperidin-4-yloxy)-N-(3-(trifluoromethyl)phenyl)quinazolin-2-amine], the EC50 in assay [1] is below 5 µM. For the same compound, the IC50 in assay [2] was below 5 µM.

As to `CS(=O)(=O)c1cccc(Nc2ncc3ccc(OC4CCNCC4)cc3n2)c1` [Compound 570, N-(3-(methylsulfonyl)phenyl)-7-(piperidin-4-yloxy)quinazolin-2-amine], in assay [1], the EC50 was below 5 µM. Further, the IC50 in assay [2] was below 5 µM.

Consider `COc1cccc(Nc2ncc3ccc(OC4CCNCC4)cc3n2)c1` [Compound 571, N-(3-methoxyphenyl)-7-(piperidin-4-yloxy)quinazolin-2-amine], for which the EC50 in assay [1] is below 5 µM. Moreover, the 50% inhibitory concentration (IC50) in assay [2] was below 5 µM.

With `c1cc(Nc2ncc3ccc(OC4CCNCC4)cc3n2)cc(N2CCOCC2)c1` [Compound 572, N-(3-morpholinophenyl)-7-(piperidin-4-yloxy)quinazolin-2-amine], the EC50 in assay [1] is below 5 µM. Further, the IC50 in assay [2] was below 5 µM.

As to `CC(C)N1CCC(Oc2ccc3cnc(Nc4cccc(F)c4)nc3c2)CC1` [Compound 573, N-(3-fluorophenyl)-7-(1-isopropylpiperidin-4-yloxy)quinazolin-2-amine], in assay [1], the EC50 lay within 5 to 10 µM. Further, the concentration for half-maximal inhibition (IC50) in assay [2] is below 5 µM.

`CC(C)N1CCC(Oc2ccc3cnc(Nc4cc(F)cc(F)c4)nc3c2)CC1` [Compound 574, N-(3,5-difluorophenyl)-7-(1-isopropylpiperidin-4-yloxy)quinazolin-2-amine]: the EC50 in assay [1] was below 5 µM. In assay [2], the IC50 was below 5 µM.

For the compound `CC(C)N1CCC(Oc2ccc3cnc(Nc4cccc(C(F)(F)F)c4)nc3c2)CC1` [Compound 575, 7-(1-isopropylpiperidin-4-yloxy)-N-(3-(trifluoromethyl)phenyl)quinazolin-2-amine], in assay [1], the EC50 is below 5 µM. The IC50 in assay [2] is below 5 µM.

`COc1cccc(Nc2ncc3ccc(OC4CCN(C(C)C)CC4)cc3n2)c1` [Compound 576, 7-(1-isopropylpiperidin-4-yloxy)-N-(3-methoxyphenyl)quinazolin-2-amine]: the EC50 in assay [1] lay in the range of 5 to 10 µM. Further, the 50% inhibitory concentration (IC50) in assay [2] is below 5 µM.

Regarding `CC(C)N1CCC(Oc2ccc3cnc(Nc4ccc5nn[nH]c5c4)nc3c2)CC1` [Compound 577, N-(1H-benzo[d][1,2,3]triazol-6-yl)-7-(1-isopropylpiperidin-4-yloxy)quinazolin-2-amine], the EC50 in assay [1] lay within 5 to 10 µM. The concentration for half-maximal inhibition (IC50) in assay [2] was below 5 µM.

Turning to `CC(C)N1CCC(Oc2ccc3cnc(Nc4cccc(N5CCCC5)c4)nc3c2)CC1` [Compound 579, 7-(1-isopropylpiperidin-4-yloxy)-N-(3-(pyrrolidin-1-yl)phenyl)quinazolin-2-amine], in assay [1], the EC50 is 5 to 10 µM. The half-inhibitory concentration (IC50) in assay [2] is below 5 µM.

On to `CC(C)N1CCC(Oc2ccc3cnc(Nc4cccc(N5CCOCC5)c4)nc3c2)CC1` [Compound 580, 7-(1-isopropylpiperidin-4-yloxy)-N-(3-morpholinophenyl)quinazolin-2-amine], for which the EC50 in assay [1] lay within 5 to 10 µM. Besides, in assay [2], the IC50 lay within 5 to 10 µM.

As for `CN1CCN(c2cccc(Nc3ncc4ccc(OC5CCNCC5)cc4n3)c2)CC1` [Compound 581, N-(3-(4-methylpiperazin-1-yl)phenyl)-7-(piperidin-4-yloxy)quinazolin-2-amine], the EC50 in assay [1] was below 5 µM. Further, the half-maximal inhibitory concentration (IC50) in assay [2] was below 5 µM.

Turning to `CC(C)N1CCC(Oc2ccc3cnc(Nc4cccc(N5CCN(C)CC5)c4)nc3c2)CC1` [Compound 582, 7-(1-isopropylpiperidin-4-yloxy)-N-(3-(4-methylpiperazin-1-yl)phenyl)quinazolin-2-amine], the EC50 in assay [1] lay within 5 to 10 µM. In addition, the 50% inhibitory concentration (IC50) in assay [2] is below 5 µM.

Regarding `Cc1nc(Nc2ccc(S(N)(=O)=O)cc2)nc2cc(OCCC3CCNCC3)ccc12` [Compound 583], in assay [1], the EC50 was in the range of 5 to 10 µM. Besides, the half-maximal inhibitory concentration (IC50) in assay [2] is 10 to 25 µM.

On to `c1ncc(-c2ccc(Nc3ncc4ccc(OC5CCNCC5)cc4n3)cc2)o1` [Compound 584, N-(4-(oxazol-5-yl)phenyl)-7-(piperidin-4-yloxy)qinazolin-2-amine], for which the EC50 in assay [1] is below 5 µM. In addition, in assay [2], the IC50 was below 5 µM.

On to `O=C(c1ccc(Nc2ncc3ccc(OC4CCNCC4)cc3n2)cc1)N1CCOCC1` [Compound 585, morpholilno(4-(7-(piperidin-4-yloxy)quinazolin-2-ylamino)phenyl)methanone], for which, in assay [1], the EC50 is below 5 µM. The IC50 in assay [2] was below 5 µM.

Take `NS(=O)(=O)c1ccc(Nc2ncc3c(-c4cn[nH]c4)ccc(OC4CCNCC4)c3n2)cc1` [Compound 586, 4-(8-(piperidin-4-yloxy)-5-(1H-pyrazol-4-yl)quinazolin-2-ylamino)benzensulfonamide]: the EC50 in assay [1] fell in the range of 5 to 10 µM. The half-maximal inhibitory concentration (IC50) in assay [2] lay within 5 to 10 µM.

As for `COc1cc(Nc2ncc3ccc(OC4CCNCC4)cc3n2)cc(C(F)(F)F)c1` [Compound 587, N-(3-methoxy-5-(trifluoromethyl)phenyl)-7-(piperidin-4-yloxy)quinazolin-2-amine], in assay [1], the EC50 was below 5 µM. In addition, the 50% inhibitory concentration (IC50) in assay [2] is below 5 µM.

In the case of `NC(=O)c1cc(Nc2ncc3ccc(OC4CCNCC4)cc3n2)cc(C(F)(F)F)c1` [Compound 588, 3-(7-(piperidin-4-yloxy)quinazolin-2-ylamino)-5-(trifluoromethyl)benzamide], the EC50 in assay [1] was below 5 µM. The 50% inhibitory concentration (IC50) in assay [2] is below 5 µM.

Regarding `Fc1ccc(Nc2ncc3ccc(OC4CCNCC4)cc3n2)cc1Br` [Compound 589, N-(3-bromo-4-fluorophenyl)-7-(piperidin-4-yloxy)quinazolin-2-amine], the EC50 in assay [1] was below 5 µM. Besides, in assay [2], the half-maximal inhibitory concentration (IC50) is below 5 µM.

As to `CC(C)NC(=O)c1ccc(Nc2ncc3ccc(OC4CCNCC4)cc3n2)cc1` [Compound 590, N-isopropyl-4-(7-(piperidin-4-yloxy)quinazolin-2-ylamino)benzamide], the EC50 in assay [1] was below 5 µM. The IC50 in assay [2] is below 5 µM.

Regarding `Fc1ccc(Nc2ncc3ccc(OC4CCNCC4)cc3n2)cc1-c1cnoc1` [Compound 592, N-(4-fluoro-3-(isoxazol-4-yl)phenyl)-7-(piperidin-4-yloxy)quinazolin-2-amine], in assay [1], the EC50 was in the range of 5 to 10 µM. Besides, the concentration for half-maximal inhibition (IC50) in assay [2] was below 5 µM.
